Columns and labels:
[1] = Leaching test: 100 g fabric soaked in 10 liters stagnant distilled water, 3 days (72 hours); assay type: physicochemical; conditions: for Leaching of active ingredients / Leaching Test-Leaching of active ingredients: pad process; for Leaching of active ingredients: cured 180° C. 2 min; for Leaching Test-Leaching of active ingredients: 2 min
Outline: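 Test and control fabrics were soaked together in a closed jar. Leached substances in the water were then determined by standard analytical methods.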

[2] = Leaching: 10 grams fabric in 100 milliliters distilled water, 7 days, GC-MS; assay type: physicochemical
Experimental: To test for a potential leaching of the antimicrobial agents fixed to the textile material, the following test was performed. A test fabric of polyester 65%/cotton 35% with 210 g/m2 was treated with polyhexamethylenebiguanide (PHMB) 0.5%, silver chloride 0.075%, octadecylaminomethyl trihydroxysilylpropyl ammonium chloride (organosilane) 0.4%, and propiconazole 0.5%
The treated textile material was put into distilled water at a ratio of 1:10. Specifically, a fabric of 10 grams was soaked in 100 milliliters of distilled water. The fabric was incubated in the water for 7 days at room temperature, i.e. between 21 and 25° C.
Following said incubation time, the fabric was removed from the water and the exposed water was tested for the presence of the above five active ingredients using gas chromatography-mass spectrometry (GC-MS).

CCCC1COC(Cn2cncn2)(c2ccc(Cl)cc2Cl)O1 (stereo not drawn) [Propiconazole, propiconazole]
Leaching of active ingredients (in ppm) ([1]; exhaust 80° C., 60 min, dosage 1% o.w.f (test up to 5% o.w.f)): 3 ppm | Leaching of active ingredients (in ppm) ([1]; exhaust 80° C., 60 min, dosage 2% o.w.f): 26 ppm | Leaching of active ingredients (in ppm) ([1]; exhaust 80° C., 60 min, dosage 3% o.w.f): 40 ppm | Leaching of active ingredients (in ppm) ([1]; exhaust 80° C., 60 min, dosage 4% o.w.f): 47 ppm | Leaching of active ingredients (in ppm) ([1]; exhaust 80° C., 60 min, dosage 5% o.w.f): 73 ppm | Leaching of active ingredients (in ppm) ([1]; exhaust 80 ° C., solution dosage 1% o.w.f, process time 10 min): 38 ppm | Leaching of active ingredients (in ppm) ([1]; exhaust 80 ° C., solution dosage 1% o.w.f, process time 20 min): 26 ppm | Leaching of active ingredients (in ppm) ([1]; exhaust 80 ° C., solution dosage 1% o.w.f, process time 30 min): 22 ppm | Leaching of active ingredients (in ppm) ([1]; exhaust 80 ° C., solution dosage 1% o.w.f, process time 40 min): 15 ppm | Leaching of active ingredients (in ppm) ([1]; exhaust 80 ° C., solution dosage 1% o.w.f, process time 50 min): 14 ppm | Leaching of active ingredients (in ppm) ([1]; exhaust 80 ° C., solution dosage 1% o.w.f, process time 55 min): 7 ppm | Leaching of active ingredients (in ppm) ([1]; exhaust 80 ° C., solution dosage 1% o.w.f, process time 60 min): 3 ppm | Leaching of active ingredients (in ppm) ([1]; exhaust 80 ° C., solution dosage 1% o.w.f, process time 70 min): 3 ppm | Leaching of active ingredients (in ppm) ([1]; exhaust 80 ° C., solution dosage 1% o.w.f, process time 80 min): 4 ppm | Leaching of active ingredients (in ppm) ([1]; exhaust 80 ° C., solution dosage 1% o.w.f, process time 90 min): 7 ppm | limit on the quantity of the agent that can be adhered to the textile in a non-leaching or substantially non-leaching manner ([1]; from Experimental examples I.1 and I.4): about 0.25 % o.w.f. | Leaching of active ingredients ([1]; mixture 1 gm/lit each): 9 ppm | Leaching of active ingredients ([1]; mixture 1 gm/lit each, after Washing): 0.4 ppm | Leaching of active ingredients ([1]; mixture 5 gm/lit each): 13 ppm | Leaching of active ingredients ([1]; mixture 5 gm/lit each, after Washing): 0.7 ppm | Leaching of active ingredients ([1]; mixture 10 gm/lit each): 24 ppm | Leaching of active ingredients ([1]; mixture 10 gm/lit each, after Washing): 0.9 ppm | Leaching Test-Leaching of active ingredients ([1]; single agent 5 gm/lit, curing 120° C.): 9 ppm | Leaching Test-Leaching of active ingredients ([1]; single agent 5 gm/lit, curing 140° C.): 7 ppm | Leaching Test-Leaching of active ingredients ([1]; single agent 5 gm/lit, curing 150° C.): 5 ppm | Leaching Test-Leaching of active ingredients ([1]; single agent 5 gm/lit, curing 160° C.): 4 ppm | Leaching Test-Leaching of active ingredients ([1]; single agent 5 gm/lit, curing 180° C.): 1 ppm | Leaching Test-Leaching of active ingredients ([1]; single agent 10 gm/lit, curing 120° C.): 15 ppm | Leaching Test-Leaching of active ingredients ([1]; single agent 10 gm/lit, curing 140° C.): 14 ppm | Leaching Test-Leaching of active ingredients ([1]; single agent 10 gm/lit, curing 150° C.): 13 ppm | Leaching Test-Leaching of active ingredients ([1]; single agent 10 gm/lit, curing 160° C.): 8 ppm | Leaching Test-Leaching of active ingredients ([1]; single agent 10 gm/lit, curing 180° C.): 2 ppm | Leaching of active ingredient (in ppm) ([1]; solution dosage 0.10% o.w.f, exhaust temperature 40° C., process time 60 min): 0 ppm | Leaching of active ingredient (in ppm) ([1]; solution dosage 0.10% o.w.f, exhaust temperature 60° C., process time 60 min): 0 ppm | Leaching of active ingredient (in ppm) ([1]; solution dosage 0.10% o.w.f, exhaust temperature 65° C., process time 60 min): 0 ppm | Leaching of active ingredient (in ppm) ([1]; solution dosage 0.10% o.w.f, exhaust temperature 70° C., process time 60 min): 0 ppm | Leaching of active ingredient (in ppm) ([1]; solution dosage 0.10% o.w.f, exhaust temperature 75° C., process time 60 min): 0 ppm | Leaching of active ingredient (in ppm) ([1]; solution dosage 0.10% o.w.f, exhaust temperature 80° C., process time 60 min): 0 ppm | Leaching of active ingredient (in ppm) ([1]; solution dosage 0.10% o.w.f, exhaust temperature 85° C., process time 60 min): 1 ppm | Leaching of active ingredient (in ppm) ([1]; solution dosage 0.10% o.w.f, exhaust temperature 90° C., process time 60 min): 2 ppm | Leaching of active ingredient (in ppm) ([1]; solution dosage 0.10% o.w.f, exhaust temperature 95° C., process time 60 min): 3 ppm | Leaching of active ingredient (in ppm) ([1]; solution dosage 0.20% o.w.f, exhaust temperature 40° C., process time 60 min): 0 ppm | Leaching of active ingredient (in ppm) ([1]; solution dosage 0.20% o.w.f, exhaust temperature 60° C., process time 60 min): 0 ppm | Leaching of active ingredient (in ppm) ([1]; solution dosage 0.20% o.w.f, exhaust temperature 65° C., process time 60 min): 0 ppm | Leaching of active ingredient (in ppm) ([1]; solution dosage 0.20% o.w.f, exhaust temperature 70° C., process time 60 min): 0 ppm | Leaching of active ingredient (in ppm) ([1]; solution dosage 0.20% o.w.f, exhaust temperature 75° C., process time 60 min): 0 ppm | Leaching of active ingredient (in ppm) ([1]; solution dosage 0.20% o.w.f, exhaust temperature 80° C., process time 60 min): 0 ppm | Leaching of active ingredient (in ppm) ([1]; solution dosage 0.20% o.w.f, exhaust temperature 85° C., process time 60 min): 2 ppm | Leaching of active ingredient (in ppm) ([1]; solution dosage 0.20% o.w.f, exhaust temperature 90° C., process time 60 min): 4 ppm | Leaching of active ingredient (in ppm) ([1]; solution dosage 0.20% o.w.f, exhaust temperature 95° C., process time 60 min): 4 ppm | Leaching of active ingredient (in ppm) ([1]; solution dosage 0.50% o.w.f, exhaust temperature 40° C., process time 60 min): 0 ppm | Leaching of active ingredient (in ppm) ([1]; solution dosage 0.50% o.w.f, exhaust temperature 60° C., process time 60 min): 1 ppm | Leaching of active ingredient (in ppm) ([1]; solution dosage 0.50% o.w.f, exhaust temperature 65° C., process time 60 min): 1 ppm | Leaching of active ingredient (in ppm) ([1]; solution dosage 0.50% o.w.f, exhaust temperature 70° C., process time 60 min): 1 ppm | Leaching of active ingredient (in ppm) ([1]; solution dosage 0.50% o.w.f, exhaust temperature 75° C., process time 60 min): 1 ppm | Leaching of active ingredient (in ppm) ([1]; solution dosage 0.50% o.w.f, exhaust temperature 80° C., process time 60 min): 1 ppm | Leaching of active ingredient (in ppm) ([1]; solution dosage 0.50% o.w.f, exhaust temperature 85° C., process time 60 min): 3 ppm | Leaching of active ingredient (in ppm) ([1]; solution dosage 0.50% o.w.f, exhaust temperature 90° C., process time 60 min): 5 ppm | Leaching of active ingredient (in ppm) ([1]; solution dosage 0.50% o.w.f, exhaust temperature 95° C., process time 60 min): 6 ppm | Leaching of active ingredient (in ppm) ([1]; solution dosage 0.80% o.w.f, exhaust temperature 40° C., process time 60 min): 0 ppm | Leaching of active ingredient (in ppm) ([1]; solution dosage 0.80% o.w.f, exhaust temperature 60° C., process time 60 min): 2 ppm | Leaching of active ingredient (in ppm) ([1]; solution dosage 0.80% o.w.f, exhaust temperature 65° C., process time 60 min): 1 ppm | Leaching of active ingredient (in ppm) ([1]; solution dosage 0.80% o.w.f, exhaust temperature 70° C., process time 60 min): 2 ppm | Leaching of active ingredient (in ppm) ([1]; solution dosage 0.80% o.w.f, exhaust temperature 75° C., process time 60 min): 2 ppm | Leaching of active ingredient (in ppm) ([1]; solution dosage 0.80% o.w.f, exhaust temperature 80° C., process time 60 min): 1 ppm | Leaching of active ingredient (in ppm) ([1]; solution dosage 0.80% o.w.f, exhaust temperature 85° C., process time 60 min): 4 ppm | Leaching of active ingredient (in ppm) ([1]; solution dosage 0.80% o.w.f, exhaust temperature 90° C., process time 60 min): 6 ppm | Leaching of active ingredient (in ppm) ([1]; solution dosage 0.80% o.w.f, exhaust temperature 95° C., process time 60 min): 7 ppm | Leaching of active ingredient (in ppm) ([1]; solution dosage 1.00% o.w.f, exhaust temperature 40° C., process time 60 min): 0 ppm | Leaching of active ingredient (in ppm) ([1]; solution dosage 1.00% o.w.f, exhaust temperature 60° C., process time 60 min): 8 ppm | Leaching of active ingredient (in ppm) ([1]; solution dosage 1.00% o.w.f, exhaust temperature 65° C., process time 60 min): 7 ppm | Leaching of active ingredient (in ppm) ([1]; solution dosage 1.00% o.w.f, exhaust temperature 70° C., process time 60 min): 4 ppm | Leaching of active ingredient (in ppm) ([1]; solution dosage 1.00% o.w.f, exhaust temperature 75° C., process time 60 min): 3 ppm | Leaching of active ingredient (in ppm) ([1]; solution dosage 1.00% o.w.f, exhaust temperature 80° C., process time 60 min): 1.5 ppm | Leaching of active ingredient (in ppm) ([1]; solution dosage 1.00% o.w.f, exhaust temperature 85° C., process time 60 min): 8 ppm | Leaching of active ingredient (in ppm) ([1]; solution dosage 1.00% o.w.f, exhaust temperature 90° C., process time 60 min): 9 ppm | Leaching of active ingredient (in ppm) ([1]; solution dosage 1.00% o.w.f, exhaust temperature 95° C., process time 60 min): 9 ppm | Extracted water Conc, ppm [2]: BDL (BDL-below detection limit Detection limit: 1 parts per million (ppm))

From US20210254272A1, “TEXTILES HAVING ANTIMICROBIAL PROPERTIES” (Livinguard AG, priority 2015, published 2021)
